Laboratory results: PubChem BioAssay (NCI)
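1) Cells in 96-well plates. 2) Compound, 48 h, 5 concentrations. 3) Linear interpolation between surrounding doses. 4) Unreached endpoint = highest concentration. Here, GI50 denotes the concentration required for 50% inhibition of growth. At the TGI there is no net growth.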

Legend:
Test in all cases: inhibition of tumour cell growth, NCI panel, 48 h
[1] = test system: NCI-H226 lung
[2] = test system: NCI-H460 lung
[3] = test system: MALME-3M melanoma
[4] = test system: MOLT-4 leukemia
[5] = test system: HCT-116 colon
[6] = test system: OVCAR-3 ovarian
[7] = test system: HS 578T breast
[8] = test system: SW-620 colon
[9] = test system: CCRF-CEM leukemia
[10] = test system: SNB-19 CNS
[11] = test system: SK-MEL-2 melanoma
[12] = test system: A498 renal
[13] = test system: SK-MEL-5 melanoma
[14] = test system: UO-31 renal
[15] = test system: PC-3 prostate
[16] = test system: RXF 393 renal
[17] = test system: TK-10 renal
[18] = test system: HCC-2998 colon
[19] = test system: HOP-62 NSCLC
[20] = test system: 786-0 renal
[21] = test system: KM12 colon
[22] = test system: CAKI-1 renal
[23] = test system: UACC-257 melanoma
[24] = test system: SK-MEL-28 melanoma
[25] = test system: EKVX NSCLC
[26] = test system: RPMI-8226 leukemia
[27] = test system: SN12C renal
[28] = test system: OVCAR-5 ovarian
[29] = test system: DU-145 prostate
[30] = test system: SK-OV-3 ovarian
[31] = test system: HOP-92 NSCLC
[32] = test system: HCT-15 colon
[33] = test system: HT29 colon
[34] = test system: NCI/ADR-RES ovarian
[35] = test system: SF-268 CNS
[36] = test system: LOX IMVI melanoma
[37] = test system: SF-295 CNS
[38] = test system: BT-549 breast
[39] = test system: UACC-62 melanoma
[40] = test system: SNB-75 CNS
[41] = test system: U251 CNS
[42] = test system: A549 NSCLC
[43] = test system: IGROV1 ovarian
[44] = test system: T-47D breast
[45] = test system: COLO 205 colon
[46] = test system: HL-60(TB) leukemia
[47] = test system: MDA-MB-231 breast
[48] = test system: OVCAR-8 ovarian
[49] = test system: SF-539 CNS
[50] = test system: OVCAR-4 ovarian
[51] = test system: ACHN renal
[52] = test system: NCI-H23 lung
[53] = test system: M14 melanoma
[54] = test system: MCF7 breast
[55] = test system: K-562 leukemia
[56] = test system: NCI-H522 lung

COc1ccc(-c2ccc(=O)oc2-c2cc(OC)c(OC)c(OC)c2)cc1O
GI50 [1]: 0.199 µM
TGI [1]: > 100 µM
GI50 [2]: 0.0244 µM
TGI [3]: > 100 µM
GI50 [4]: 0.0512 µM
TGI [4]: > 100 µM
GI50 [5]: 0.0242 µM
TGI [5]: > 100 µM
GI50 [6]: < 0.01 µM
TGI [6]: 0.16 µM
GI50 [7]: 0.0275 µM
TGI [7]: > 100 µM
GI50 [8]: < 0.0147 µM
TGI [8]: > 100 µM
GI50 [9]: 0.0219 µM
GI50 [10]: 0.0571 µM
TGI [10]: > 100 µM
GI50 [11]: 0.315 µM
TGI [11]: > 100 µM
GI50 [12]: 0.0315 µM
TGI [12]: > 77.6 µM
GI50 [13]: < 0.01 µM
TGI [13]: 3.45 µM
GI50 [14]: < 0.0208 µM
TGI [14]: > 100 µM
GI50 [15]: 0.0183 µM
TGI [15]: > 100 µM
GI50 [16]: < 0.01 µM
TGI [16]: 0.011 µM
GI50 [17]: 62.3 µM
TGI [17]: > 100 µM
GI50 [18]: 0.0379 µM
TGI [18]: 0.426 µM
GI50 [19]: 0.0199 µM
TGI [19]: > 100 µM
GI50 [20]: < 0.0228 µM
TGI [20]: 13.9 µM
GI50 [21]: < 0.0248 µM
TGI [21]: > 35.8 µM
GI50 [22]: 0.0459 µM
TGI [22]: > 100 µM
GI50 [23]: 0.099 µM
TGI [23]: > 100 µM
GI50 [24]: 1.64 µM
TGI [24]: > 100 µM
GI50 [25]: 0.0807 µM
TGI [25]: > 100 µM
GI50 [26]: 0.0251 µM
TGI [26]: 0.956 µM
GI50 [27]: 0.0697 µM
TGI [27]: > 100 µM
TGI [28]: > 100 µM
GI50 [29]: 0.0297 µM
GI50 [30]: 0.0307 µM
TGI [30]: > 100 µM
TGI [31]: > 100 µM
GI50 [32]: 0.0138 µM
TGI [32]: > 20.5 µM
GI50 [33]: 0.663 µM
GI50 [34]: 0.036 µM
TGI [34]: > 100 µM
GI50 [35]: 0.0606 µM
TGI [35]: > 34.8 µM
GI50 [36]: 0.051 µM
TGI [36]: > 100 µM
GI50 [37]: 0.0157 µM
TGI [37]: > 100 µM
GI50 [38]: 0.0919 µM
TGI [38]: > 100 µM
GI50 [39]: < 0.0402 µM
TGI [39]: > 100 µM
GI50 [40]: 0.0389 µM
TGI [40]: > 100 µM
GI50 [41]: 0.0286 µM
TGI [41]: > 100 µM
GI50 [42]: 0.0595 µM
TGI [42]: > 100 µM
GI50 [43]: < 0.01 µM
GI50 [44]: > 100 µM
TGI [44]: > 100 µM
GI50 [45]: 2.21 µM
TGI [45]: > 37.5 µM
GI50 [46]: 0.0208 µM
TGI [46]: 0.0705 µM
GI50 [47]: 0.0613 µM
TGI [47]: > 100 µM
GI50 [48]: 0.0498 µM
TGI [48]: > 100 µM
GI50 [49]: < 0.0149 µM
TGI [49]: 0.104 µM
GI50 [50]: 0.283 µM
TGI [50]: > 100 µM
GI50 [51]: 0.135 µM
TGI [51]: > 73.3 µM
GI50 [52]: 0.0689 µM
TGI [52]: > 100 µM
GI50 [53]: 0.018 µM
TGI [53]: > 100 µM
GI50 [54]: < 0.01 µM
TGI [54]: > 100 µM
GI50 [55]: < 0.0229 µM
TGI [55]: > 100 µM
GI50 [56]: 0.0124 µM
TGI [56]: 0.0944 µM
